In article PMC12649549, “Sequence Permutation Generated Lysine and Tryptophan-Rich Antimicrobial Peptides with Enhanced Therapeutic Index” (Antibiotics, 2025):
Like-named read-outs stand apart in the source and are kept apart here.

Experiments:
S. aureus ATCC 33593 = tested on: S. aureus ATCC 33593
Method in brief: (§1)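 Salt and pH tolerance was assessed by determining MICs in LYM medium containing 50–300 mM NaCl, 0.5–2.5 mM MgCl2, or at pH 4.5–6.5, alongside MH broth. The inoculum was 5 × 10^5 CFU/mL.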

[1] = tested on: Pseudomonas aeruginosa Migula (ATCC 27853)
Method in brief: as §1

[2] = tested on: A. baumannii 14B0097 (Acinetobacter sp., BCRC number 14B0097)
Method in brief: as §1

S. aureus ATCC 33592 = tested on: S. aureus ATCC 33592
Method in brief: as §1

Gram-positive bacteria = assay: Geometric mean MIC and therapeutic index, Gram-positive bacteria; assay type: cell-based; conditions: Gram-positive bacteria; for GM G+ (geometric mean of the MIC values): MH broth, MIC >50 µg/mL counted as 100 µg/mL; for Therapeutic Index (TI) G+: HC10/GM
Method in brief: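 Therapeutic index taken as the ratio of HC10 on human erythrocytes to geometric mean MIC. MICs from CLSI broth microdilution with peptides at 50 down to 0.78 µg/mL, inoculum 5 × 10^5 CFU/mL, in MH or modified LYM broth; triplicate independent experiments.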

[3] = LYM broth, 0 mM NaCl, 16 h, 37 °C
[4] = LYM broth, 50 mM NaCl, 16 h, 37 °C
[5] = LYM broth, 100 mM NaCl, 16 h, 37 °C
[6] = LYM broth, 200 mM (NaCl), 16 h, 37 °C
[7] = LYM broth, 300 mM (NaCl), 16 h, 37 °C
[8] = MH broth, 5 × 10^5 CFU/mL, 16 h, 37 °C, repeated three times

Ac-KWRKWLKWLAKKK-NH2 [Peptide W5K01] showed an MIC (S. aureus ATCC 33593; [3]) of 6.25 µg/mL, an MIC (S. aureus ATCC 33593; LYM broth, 0.5 mM MgCl2) of 6.25 µg/mL and an MIC (S. aureus ATCC 33593; LYM broth, 1.5 mM MgCl2) of 6.25 µg/mL. The MIC (S. aureus ATCC 33593; LYM broth, 2.5 mM MgCl2) was 6.25 µg/mL, the MIC (S. aureus ATCC 33593; [4]) was 6.25 µg/mL and the MIC (S. aureus ATCC 33593; [5]) was 12.5 µg/mL. The MIC (S. aureus ATCC 33593; [6]) was 25 µg/mL, the MIC (S. aureus ATCC 33593; [7]) was 50 µg/mL and the MIC (S. aureus ATCC 33593; LYM broth, pH 4.5) was 6.25 µg/mL. For the same substance, the MIC (S. aureus ATCC 33593; LYM broth, pH 5.5) was 3.13 µg/mL, the MIC (S. aureus ATCC 33593; LYM broth, pH 6.5) was 3.13 µg/mL and the MIC (S. aureus ATCC 33593; [8]) was 50 µg/mL. For the same substance, the MIC [1, 3] was 3.13 µg/mL, the MIC ([1]; LYM broth, 0.5 mM MgCl2) was 3.13 µg/mL and the MIC ([1]; LYM broth, 1.5 mM MgCl2) was 6.25 µg/mL. The MIC ([1]; LYM broth, 2.5 mM MgCl2) was 12.5 µg/mL, the MIC [1, 4] was 6.25 µg/mL and the MIC [1, 5] was 12.5 µg/mL. The MIC [1, 6] was >50 µg/mL, the MIC [1, 7] was >50 µg/mL and the MIC ([1]; LYM broth, pH 4.5) was 3.13 µg/mL. It also gave an MIC ([1]; LYM broth, pH 5.5) of 3.13 µg/mL, an MIC ([1]; LYM broth, pH 6.5) of 1.56 µg/mL and an MIC [1, 8] of 12.5 µg/mL. For the same substance, the MIC [2, 3] was 1.56 µg/mL, the MIC ([2]; LYM broth, 0.5 mM MgCl2) was 1.56 µg/mL and the MIC ([2]; LYM broth, 1.5 mM MgCl2) was 3.13 µg/mL. For the same substance, the MIC ([2]; LYM broth, 2.5 mM MgCl2) was 3.13 µg/mL, the MIC [2, 4] was 1.56 µg/mL and the MIC [2, 5] was 3.13 µg/mL. It also gave an MIC [2, 6] of 3.13 µg/mL, an MIC [2, 7] of 12.5 µg/mL and an MIC ([2]; LYM broth, pH 4.5) of 3.13 µg/mL. The MIC ([2]; LYM broth, pH 5.5) was 3.13 µg/mL, the MIC ([2]; LYM broth, pH 6.5) was 1.56 µg/mL and the MIC [2, 8] was 6.25 µg/mL. For the same substance, the MIC (S. aureus ATCC 33592; [3]) was 6.25 µg/mL, the MIC (S. aureus ATCC 33592; LYM broth, 0.5 mM MgCl2) was 6.25 µg/mL and the MIC (S. aureus ATCC 33592; LYM broth, 1.5 mM MgCl2) was 6.25 µg/mL. For the same substance, the MIC (S. aureus ATCC 33592; LYM broth, 2.5 mM MgCl2) was 12.5 µg/mL, the MIC (S. aureus ATCC 33592; [4]) was 6.25 µg/mL and the MIC (S. aureus ATCC 33592; [5]) was 12.5 µg/mL. It also gave an MIC (S. aureus ATCC 33592; [6]) of 25 µg/mL, an MIC (S. aureus ATCC 33592; [7]) of 50 µg/mL and an MIC (S. aureus ATCC 33592; LYM broth, pH 4.5) of 6.25 µg/mL. The MIC (S. aureus ATCC 33592; LYM broth, pH 5.5) was 6.25 µg/mL, the MIC (S. aureus ATCC 33592; LYM broth, pH 6.5) was 6.25 µg/mL and the MIC (S. aureus ATCC 33592; [8]) was 50 µg/mL. The “GM G+ (geometric mean of the MIC values)” value (Gram-positive bacteria) was 28.7 µg/mL and the “Therapeutic Index (TI) G+” value (Gram-positive bacteria) was 2.5.
Work on Ac-LAKKKKWRKWLKW-NH2 [Peptide W5K09] yielded an MIC (S. aureus ATCC 33593; [3]) of 25 µg/mL, an MIC (S. aureus ATCC 33593; LYM broth, 0.5 mM MgCl2) of 25 µg/mL and an MIC (S. aureus ATCC 33593; LYM broth, 1.5 mM MgCl2) of 25 µg/mL. For the same substance, the MIC (S. aureus ATCC 33593; LYM broth, 2.5 mM MgCl2) was 50 µg/mL, the MIC (S. aureus ATCC 33593; [4]) was 25 µg/mL and the MIC (S. aureus ATCC 33593; [5]) was 50 µg/mL. The MIC (S. aureus ATCC 33593; [6]) was >50 µg/mL, the MIC (S. aureus ATCC 33593; [7]) was >50 µg/mL and the MIC (S. aureus ATCC 33593; LYM broth, pH 4.5) was 25 µg/mL. For the same substance, the MIC (S. aureus ATCC 33593; LYM broth, pH 5.5) was 25 µg/mL, the MIC (S. aureus ATCC 33593; LYM broth, pH 6.5) was 12.5 µg/mL and the MIC (S. aureus ATCC 33593; [8]) was >50 µg/mL. The MIC [1, 3] was 3.13 µg/mL, the MIC ([1]; LYM broth, 0.5 mM MgCl2) was 6.25 µg/mL and the MIC ([1]; LYM broth, 1.5 mM MgCl2) was 6.25 µg/mL. For the same substance, the MIC ([1]; LYM broth, 2.5 mM MgCl2) was 12.5 µg/mL, the MIC [1, 4] was 6.25 µg/mL and the MIC [1, 5] was 12.5 µg/mL. For the same substance, the MIC [1, 6] was 50 µg/mL, the MIC [1, 7] was >50 µg/mL and the MIC ([1]; LYM broth, pH 4.5) was 6.25 µg/mL. The MIC ([1]; LYM broth, pH 5.5) was 3.13 µg/mL, the MIC ([1]; LYM broth, pH 6.5) was 3.13 µg/mL and the MIC [1, 8] was 25 µg/mL. It also gave an MIC [2, 3] of 3.13 µg/mL, an MIC ([2]; LYM broth, 0.5 mM MgCl2) of 3.13 µg/mL and an MIC ([2]; LYM broth, 1.5 mM MgCl2) of 3.13 µg/mL. The MIC ([2]; LYM broth, 2.5 mM MgCl2) was 3.13 µg/mL, the MIC [2, 4] was 3.13 µg/mL and the MIC [2, 5] was 12.5 µg/mL. The MIC [2, 6] was 50 µg/mL, the MIC [2, 7] was >50 µg/mL and the MIC ([2]; LYM broth, pH 4.5) was 6.25 µg/mL. The MIC ([2]; LYM broth, pH 5.5) was 3.13 µg/mL, the MIC ([2]; LYM broth, pH 6.5) was 1.56 µg/mL and the MIC [2, 8] was 25 µg/mL. It also gave an MIC (S. aureus ATCC 33592; [3]) of 25 µg/mL, an MIC (S. aureus ATCC 33592; LYM broth, 0.5 mM MgCl2) of 25 µg/mL and an MIC (S. aureus ATCC 33592; LYM broth, 1.5 mM MgCl2) of 25 µg/mL. For the same substance, the MIC (S. aureus ATCC 33592; LYM broth, 2.5 mM MgCl2) was 50 µg/mL, the MIC (S. aureus ATCC 33592; [4]) was 25 µg/mL and the MIC (S. aureus ATCC 33592; [5]) was 50 µg/mL. The MIC (S. aureus ATCC 33592; [6]) was 50 µg/mL, the MIC (S. aureus ATCC 33592; [7]) was >50 µg/mL and the MIC (S. aureus ATCC 33592; LYM broth, pH 4.5) was 25 µg/mL. The MIC (S. aureus ATCC 33592; LYM broth, pH 5.5) was 12.5 µg/mL, the MIC (S. aureus ATCC 33592; LYM broth, pH 6.5) was 12.5 µg/mL and the MIC (S. aureus ATCC 33592; [8]) was >50 µg/mL. For the same substance, the “GM G+ (geometric mean of the MIC values)” value (Gram-positive bacteria) was 75.8 µg/mL and the “Therapeutic Index (TI) G+” value (Gram-positive bacteria) was 1.4.
